Laboratory results as given in BindingDB's records for doi:10.1021/jm4017448 (China Pharmaceutical University, 2013).
pEC50: −log10 of the molar value.

Target: Glucagon-like peptide 1 receptor (Homo sapiens, UniProt P43220)
Experiment: Activation of human GLP-1 receptor overexpressed in HEK293 cells assessed as cAMP accumulation after 20 mins by HTRF assay

Glucagon-like peptide 1 receptor, sequence (P43220 whole entry): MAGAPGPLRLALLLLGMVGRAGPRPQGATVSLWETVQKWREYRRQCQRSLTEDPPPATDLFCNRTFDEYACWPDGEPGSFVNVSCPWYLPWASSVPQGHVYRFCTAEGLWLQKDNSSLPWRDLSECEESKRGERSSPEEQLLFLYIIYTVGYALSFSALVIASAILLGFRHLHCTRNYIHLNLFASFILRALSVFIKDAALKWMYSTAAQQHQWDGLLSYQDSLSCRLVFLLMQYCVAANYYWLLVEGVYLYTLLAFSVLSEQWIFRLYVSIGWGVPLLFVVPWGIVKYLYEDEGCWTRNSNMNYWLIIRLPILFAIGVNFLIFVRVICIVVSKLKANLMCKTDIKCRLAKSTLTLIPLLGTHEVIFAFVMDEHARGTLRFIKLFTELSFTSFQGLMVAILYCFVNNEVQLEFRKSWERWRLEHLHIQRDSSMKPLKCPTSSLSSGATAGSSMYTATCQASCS

SMILES | pEC50
CC[C@H](C)[C@H](NC(=O)[C@H](Cc1ccccc1)NC(=O)[C@H](CCC(=O)O)NC(=O)[C@H](CCCCN)NC(=O)[C@H](C)NC(=O)[C@H](C)NC(=O)[C@H](CCC(N)=O)NC(=O)CNC(=O)[C@H](CCC(=O)O)NC(=O)[C@H](CC(C)C)NC(=O)[C@H](Cc1ccc(O)cc1)NC(=O)[C@H](CO)NC(=O)[C@H](CO)NC(=O)[C@@H](NC(=O)[C@H](CC(=O)O)NC(=O)[C@H](CO)NC(=O)[C@@H](NC(=O)[C@H](Cc1ccccc1)NC(=O)[C@@H](NC(=O)CNC(=O)[C@H](CCC(=O)O)NC(=O)CNC(=O)[C@@H](N)Cc1cnc[nH]1)[C@@H](C)O)[C@@H](C)O)C(C)C)C(=O)N[C@@H](C)C(=O)N[C@@H](Cc1c[nH]c2ccccc12)C(=O)N[C@@H](CC(C)C)C(=O)N[C@H](C(=O)N[C@@H](CCCCN)C(=O)NCC(=O)N[C@@H](CCCNC(=N)N)C(=O)N[C@@H](CSC1CC(=O)N(CCCCCC(=O)Nc2ccc(C(c3c(O)c4ccccc4oc3=O)c3c(O)c4ccccc4oc3=O)cc2)C1=O)C(N)=O)C(C)C (some centres not stated) | 11.52
CC[C@H](C)[C@H](NC(=O)[C@H](Cc1ccccc1)NC(=O)[C@H](CCC(=O)O)NC(=O)[C@H](CS)NC(=O)[C@H](C)NC(=O)[C@H](C)NC(=O)[C@H](CCC(N)=O)NC(=O)CNC(=O)[C@H](CCC(=O)O)NC(=O)[C@H](CC(C)C)NC(=O)[C@H](Cc1ccc(O)cc1)NC(=O)[C@H](CO)NC(=O)[C@H](CO)NC(=O)[C@@H](NC(=O)[C@H](CC(=O)O)NC(=O)[C@H](CO)NC(=O)[C@@H](NC(=O)[C@H](Cc1ccccc1)NC(=O)[C@@H](NC(=O)CNC(=O)[C@H](CCC(=O)O)NC(=O)CNC(=O)[C@@H](N)Cc1cnc[nH]1)[C@@H](C)O)[C@@H](C)O)C(C)C)C(=O)N[C@@H](C)C(=O)N[C@@H](Cc1c[nH]c2ccccc12)C(=O)N[C@@H](CC(C)C)C(=O)N[C@H](C(=O)N[C@@H](CCCCN)C(=O)NCC(=O)N[C@@H](CCCNC(=N)N)C(N)=O)C(C)C | 11.52
